US7521254B2, “Quantitative measurements of concentration and solubility using Raman spectroscopy” (Transform Pharmaceuticals, Inc., priority 2004, dated 2009)

Experiment: Raman spectroscopic measurement of solute concentration in multi-component solvent mixtures
Assay type: physicochemical
Conditions: prepared at 10 mg/mL
Procedure: FIGS. 1B and 1C depict calibration spectra for a two-component system (component A and component B) in which the solute from FIG. 1A is homogeneously distributed. FIG. 1B represents a calibration spectrum for single-component A while FIG. 1C represents a calibration spectrum for single-component B. The concentration of both single-component systems is 15 mg/mL. FIG. 1D depicts a Raman spectrum of the two-component system (A and B) with an unknown solute concentration. The ratio of A:B is 1:1 in the unknown sample. FIG. 1E is a representation of the Raman intensities at a particular frequency (v1) in both calibration spectra. A dotted line has been drawn between the calibration intensities and illustrates the expected Raman intensities at frequency v1 due to the solute molecule in mixtures of both components. […] In view of FIG. 1E, the ratio of components in the unknown sample can be used to determine the concentration of solute. […] A solute concentration above 15 mg/mL results in a Raman intensity greater than (IA+IB)/2 while a solute concentration below 15 mg/mL results in a Raman intensity less than (IA+IB)/2. Due to a directly proportional and linear relationship between Raman scattering intensity and concentration, values both above and below 15 mg/mL are easily calculated based on the measured Raman intensity of the unknown (multi-component) sample.
In another embodiment, automated software can be programmed to analyze the data. First, the software identifies the spectral peaks and intensities that are unique to the solute molecule by direct comparison with a solvent only (signature) spectrum. The various single-component (calibration) Raman spectra are then accessed and a calibration matrix is configured and saved from these single-component data. […] The concentration of solute in the multi-component system is calculated using a weighted average determination. For instance, the concentration (C) of a solute in a multi-component system can be calculated by using equation (1), C=a1c1+a2c2+a3c3+ . . . […]

| Compound | mean value for the concentration (1:1:1 ternary mixtures by volume (Table II), RSD 6.7 percent) [mg/mL] | mean value for the concentration (1:3 binary mixtures of excipients by volume (Table I), two trials, RSD 9.6 percent) [mg/mL] | mean value for the concentration (1:1 binary mixtures by volume (Table IV), RSD 9.7 percent) [mg/mL] |
| --- | --- | --- | --- |
| CC(=O)Nc1ccc(O)cc1 [Acetaminophen] | 9.48 | 10.18 | – |
| CC(=O)Oc1ccccc1C(=O)O [Acetylsalicylic acid] | – | – | 10.19 |
